# Where “and” joins values, the source holds several entries; their conditions need not be identical. Identical values can stand only once. Like-named read-outs stand apart in the source and are kept apart here.
# Tests used:
# [1] = Concentrations of DCDQ and DCDQ carbamoyl glucuronide (M6) in human plasma, LC/SRM (Table 34); type: in vivo, healthy human subjects; conditions: plasma, plasma; for concentration at 6 h / concentration at 12 h / concentration at 24 h: human, oral, read-out: DCDQ concentration in plasma
# Procedure: Drug administration and specimen collection were performed in a randomized, double-blinded, placebo-controlled, ascending single dose study of the safety, tolerability, pharmacokinetics, and pharmacodynamics of DCDQ administered orally to healthy subjects and subjects with schizophrenia and schizoaffective disorder. The specimens were stored at approximately −70° C. until analysis for metabolite profiles and for ratios of carbamoyl glucuronide (M6) to DCDQ.
# Plasma samples from fasted subjects 25, 28 and 30 in the 50 mg single dose group, fasted subjects 50, 51, 54 in the 200 mg single dose group, fasted subjects 74, 76, 79 in the 300 mg single dose group, fed subjects 83, 84, 86 in the 300 mg single dose group and fasted subjects 92, 94, 96 in the 500 mg single dose group were analyzed for DCDQ carbamoyl glucuronide (M6) concentrations. The internal standard d8-DCDQ (25 μL of 200 ng/mL methanol solution) was added to 100 μL of the plasma samples, followed by the addition of 300 μL of acetonitrile. The samples were mixed and centrifuged at 14000 rpm in an Eppendorf 5415C centrifuge (Brinkman Instruments Inc., Westbury, N.Y.) for 10 minutes. The supernatant of each sample was transferred to a clean tube and evaporated to dryness under a stream of nitrogen in a TurboVap LV evaporator (Caliper Life Sciences, Hopkinton, Mass.). The residue was reconstituted with 50 μL of methanol followed by the addition of 150 μL of water. The sample was mixed and centrifuged as described above. The supernatant was analyzed by LC/MS/MS analysis. Samples for standard curves were prepared with control plasma spiked with synthetic M6. The concentrations of M6 used for the standard curve ranged from 0 to 2500 ng/mL plasma.
# LC/MS System 3 was used for semi-quantitative analysis of metabolite M6 (DCDQ carbamoyl glucuronide) in plasma and urine samples. The HPLC equipment for this LC/MS System consisted of a Thermo Surveyor HPLC (Thermo Electron Corp., San Jose, Calif.), including a Surveyor MS pump and autosampler. Separations were accomplished on a 5 micron Phenomenex Luna C18(2) column, 150×2 mm (Phenomenex, Torrance, Calif.). The autosampler and column temperatures were set at 5° C. and 40° C., respectively. The HPLC mobile phase consisted of 10 mM ammonium acetate (A) and methanol (B), and was delivered at 0.2 mL/min. The linear mobile phase gradient (HPLC Gradient 2) is shown below. During LC/MS sample analysis, up to 3 min of the initial flow was diverted away from the mass spectrometer prior to evaluation of metabolites.
# The mass spectrometer used for semi-quantitative anslysis with LC/MS System 3 was a Finnigan TSQ Quantum triple quadrupole mass spectrometer (Thermo Electron Corp.). The mass spectrometer was equipped with an electrospray interface and operated in the positive ionization mode. Settings for this mass spectrometer are listed below.
# LC/MS/MS analysis in the selected reaction monitoring (SRM) mode (LC/SRM) was conducted for DCDQ and M6 using the following settings.
# The computer program Microsoft Excel® 97 was used to calculate means and standard deviations and to perform the student t-test. Xcalibur (version 1.3) and MassLynx software (version 4.0) were used for collection and analysis of LC/MS data. Peak area ratios of M6 to the internal standard were used for quantitation of M6 in plasma samples.
# 5-HT2C = target: T1, 5-HT2C (Homo sapiens, UniProt P28335); conditions: see WO03/091250 and US2004/0009970; cited from earlier work
# T1 sequence (P28335 33-458): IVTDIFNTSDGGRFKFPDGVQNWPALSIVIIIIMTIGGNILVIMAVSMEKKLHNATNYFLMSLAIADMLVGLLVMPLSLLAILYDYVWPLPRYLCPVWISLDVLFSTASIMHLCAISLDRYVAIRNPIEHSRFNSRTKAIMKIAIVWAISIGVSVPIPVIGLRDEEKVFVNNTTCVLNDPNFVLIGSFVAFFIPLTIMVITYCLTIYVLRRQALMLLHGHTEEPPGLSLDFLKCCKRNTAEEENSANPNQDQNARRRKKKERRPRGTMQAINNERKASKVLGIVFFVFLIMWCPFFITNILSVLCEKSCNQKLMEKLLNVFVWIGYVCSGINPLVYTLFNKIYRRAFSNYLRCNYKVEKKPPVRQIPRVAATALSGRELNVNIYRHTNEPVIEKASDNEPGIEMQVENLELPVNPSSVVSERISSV
structure (smiles),measurement,setting,value
"c1cc2c3c(c1)[C@H]1CCC[C@H]1CN3CCNC2 [DCDQ, (9aR,12aS)-4,5,6,7,9,9a,10,11,12,12a-decahydro-cyclopenta[c][1,4]diazepine[6,7,1-ij]quinoline, reference compound]",concentration at 6 h,"[1]; 50 mg, 50 mg (fasted), 6 hr, Mean ± S.D.",2.47 ± 2.21 ng/mL
same,concentration at 12 h,"[1]; 50 mg, 50 mg (fasted), 12 hr, Mean ± S.D.",1.2 ± 1.14 ng/mL
same,concentration at 24 h,"[1]; 50 mg, 50 mg (fasted), 24 hr, Mean (standard deviation not calculated)",0.4 ng/mL
same,concentration at 6 h,"[1]; 200 mg, 200 mg (fasted), 6 hr, Mean ± S.D.",10.9 ± 7.71 ng/mL
same,concentration at 12 h,"[1]; 200 mg, 200 mg (fasted), 12 hr, Mean ± S.D.",5.6 ± 4.06 ng/mL
same,concentration at 24 h,"[1]; 200 mg, 200 mg (fasted), 24 hr, Mean ± S.D.",1.5 ± 1.15 ng/mL
same,concentration at 6 h,"[1]; 300 mg, 300 mg (fasted), 6 hr, Mean ± S.D.",7.45 ± 7.48 ng/mL
same,concentration at 12 h,"[1]; 300 mg, 300 mg (fasted), 12 hr, Mean ± S.D.",4.23 ± 3.26 ng/mL
same,concentration at 24 h,"[1]; 300 mg, 300 mg (fasted), 24 hr, Mean ± S.D.",1.46 ± 0.43 ng/mL
same,concentration at 24 h,"[1]; 300 mg, 300 mg (fasted), 24 hr, individual subjects",0.972 ng/mL
same,concentration at 6 h,"[1]; 300 mg, 300 mg (fed), 6 hr, Mean ± S.D.",12 ± 9.39 ng/mL
same,concentration at 12 h,"[1]; 300 mg, 300 mg (fed), 12 hr, Mean ± S.D.",8.31 ± 2.47 ng/mL
same,concentration at 12 h,"[1]; 300 mg, 300 mg (fed), 12 hr, individual subjects",10.9 ng/mL
same,concentration at 24 h,"[1]; 300 mg, 300 mg (fed), 24 hr, Mean ± S.D.",2.15 ± 0.86 ng/mL
same,concentration at 6 h,"[1]; 500 mg, 500 mg (fasted), 6 hr, Mean ± S.D.",32.1 ± 12.2 ng/mL
same,concentration at 12 h,"[1]; 500 mg, 500 mg (fasted), 12 hr, Mean ± S.D.",19.4 ± 6.56 ng/mL
same,concentration at 24 h,"[1]; 500 mg, 500 mg (fasted), 24 hr, Mean ± S.D.",5.45 ± 1.47 ng/mL
same,concentration at 24 h,"[1]; 500 mg, 500 mg (fasted), 24 hr, individual subjects",5.53 ng/mL
same,DCDQ concentration in plasma,"[1]; 50 mg (fasted), 6 hr, individual subjects",0.9 ng/mL and 5.0 ng/mL
same,DCDQ concentration in plasma,"[1]; 50 mg (fasted), 12 hr, individual subjects",0.7 ng/mL and 0.4 ng/mL and 2.5 ng/mL
same,DCDQ concentration in plasma,"[1]; 50 mg (fasted), 24 hr, individual subjects",0.2 ng/mL and 0.6 ng/mL
same,DCDQ concentration in plasma,"[1]; 200 mg (fasted), 6 hr, individual subjects",2.7 ng/mL and 18.0 ng/mL and 12.0 ng/mL
same,DCDQ concentration in plasma,"[1]; 200 mg (fasted), 12 hr, individual subjects",1.2 ng/mL and 9.2 ng/mL and 6.4 ng/mL
same,DCDQ concentration in plasma,"[1]; 200 mg (fasted), 24 hr, individual subjects",0.3 ng/mL and 2.6 ng/mL and 1.6 ng/mL
same,DCDQ concentration in plasma,"[1]; 300 mg (fasted), 6 hr, individual subjects",2.09 ng/mL and 4.27 ng/mL and 16.0 ng/mL
same,DCDQ concentration in plasma,"[1]; 300 mg (fasted), 12 hr, individual subjects",1.50 ng/mL and 3.34 ng/mL and 7.84 ng/mL
same,DCDQ concentration in plasma,"[1]; 300 mg (fasted), 24 hr, individual subjects",1.72 ng/mL and 1.70 ng/mL
same,DCDQ concentration in plasma,"[1]; 300 mg (fed), 6 hr, individual subjects",19.0 ng/mL and 15.6 ng/mL and 1.30 ng/mL
same,DCDQ concentration in plasma,"[1]; 300 mg (fed), 12 hr, individual subjects",8.06 ng/mL and 5.97 ng/mL
same,DCDQ concentration in plasma,"[1]; 300 mg (fed), 24 hr, individual subjects",2.60 ng/mL and 1.15 ng/mL and 2.69 ng/mL
same,DCDQ concentration in plasma,"[1]; 500 mg (fasted), 6 hr, individual subjects",44.5 ng/mL and 31.7 ng/mL and 20.2 ng/mL
same,DCDQ concentration in plasma,"[1]; 500 mg (fasted), 12 hr, individual subjects",24.5 ng/mL and 21.7 ng/mL and 12.0 ng/mL
same,DCDQ concentration in plasma,"[1]; 500 mg (fasted), 24 hr, individual subjects",6.88 ng/mL and 3.95 ng/mL
same,5-HT2C agonist activity,5-HT2C,potent 5-HT2C agonist

# From patent publication US20060111305A1, “Metabolites of certain [1,4]diazepino[6,7,1-ij]quinoline derivatives and methods of preparation and use thereof” (Wyeth, priority 2004, published 2006)
